Paper PMC11845477, “Exploring the principles behind antibiotics with limited resistance” (Nature Communications, 2025)
Read-outs that look alike come from different tables or passages of the source.

Tests used:
E. coli BW25113-ΔacrB = assay: AcrAB-TolC efflux deficiency screen, relative MIC; type: cell-based, Escherichia coli; conditions: ΔacrB vs wild-type
Description: (§1) Fig. 6 The impact of AcrAB-TolC activity on antibiotic susceptibility. E. coli strains with AcrAB-TolC depletion (BW25113-ΔacrB) and overexpression (BW25113: pUCacrAB) were treated with various antibiotics, and the level of resistance was determined as minimum inhibitory concentration (MIC) relative to a wild-type strain, presented on a logarithmic scale (log2). Each bar represents the mean resistance level (susceptibility, i.e., level of resistance < 0; and resistance, i.e., level of resistance > 0) to antibiotics induced by acrAB overexpression (blue bars; E. coli with a multicopy plasmid of the acrAB genes (pUCacrAB)) and acrB deletion (red bars; mutant E. coli with acrB gene deletion (ΔacrB)) compared to the wild-type. Data are presented as mean values of 3 biological replicates ± SD. […] Detailed information on antibiotic and bacterial strain abbreviations is provided in Supplementary Data 1. Source data are provided as a Source Data file. For information on mode of action groups, refer to Table 1.
(§2) For the efflux deficiency screen, the ΔacrB mutant of E. coli K12 BW25113[86] and its equivalent wild-type control strain with intact gene were utilized. In contrast, BW25113 carrying a multicopy acrAB plasmid (pUCacrAB)[87] and its control strain harboring an empty pUC118 plasmid were used to overexpress the acrAB efflux system. According to established protocols via P1 transduction, the suitable acrB deletion mutant (ΔacrB BW25113) was created, while the pUCacrAB plasmid was kindly provided by Kunihiko Nishino and Akihito Yamaguchi (Osaka University, Osaka, Japan). In a prior study, both strains were employed. Since the copy number of the plasmid carrying the efflux pump is controlled by native promoters, external induction is unnecessary.
(§3) Antibiotic susceptibilities of these strains were evaluated using a modified version of the standard broth dilution method. In 96-well microtiter plates containing fresh MHB medium, or supplemented MS medium in case of SCH79797, ten-step serial dilutions of an antibiotic from a stock solution were made (2 wells per antibiotic concentration per strain). The two wells contained only supplemented media without any antibiotics […]. Strains were incubated overnight at 37 °C with continuous agitation. Additionally, plasmid containing strains were grown in the presence of 100 µg/mL ampicillin. The culture was diluted to yield a cell suspension with 5 ×10^5 cells/mL and then inoculated into the wells of the microtiter plate. To determine the medium’s background OD value, the first column of the 96-well plate contained solely MHB without inoculum. Prior to the measurement, the plates were incubated at 37 °C with continuous shaking at 900 rpm with 3 mm throw. OD600 values were determined in a microplate reader after 18 hours of incubation (Biotek Synergy 2). The minimum inhibitory concentration (MIC) was determined as the lowest concentration of antibiotic at which the OD600 values were less than 0.05 after subtracting the background value. The log2 of the relative MIC was computed using the following equation:2 log2relativeMICpUCacrAB=MICpUCacrAB/MICpUC118 3 log2relativeMICΔacrB=MICΔacrB/MICwt

[1] = test system: K. pneumoniae ATCC 10031 (SEN) and K. pneumoniae ATCC 700603 (MDR); assay: Frequency-of-resistance (FoR) assay, relative MIC of mutants; type: cell-based, Klebsiella pneumoniae; conditions: for MIC: Klebsiella pneumoniae
Description: The susceptibility of antibiotics to resistance development was evaluated in two strains of each bacterial species: a multidrug-resistant strain and an antibiotic-sensitive strain of Escherichia coli, Klebsiella pneumoniae, Acinetobacter baumannii, and Pseudomonas aeruginosa. To explore first-step resistance, we previously used a standard protocol for spontaneous frequency-of-resistance analysis (FoR assay) at multiple concentrations of each antibiotic[10],[28],[31]–[33]. […] For all other combinations, approximately 10^10 bacterial cells were exposed to one of each antibiotic on agar plates for two days at concentrations where the given strain is susceptible. We examined resistance levels by contrasting the minimum inhibitory concentration (MICs) of the mutated strains to the original wild-type bacterial strain (i.e., relative MIC).
To estimate the frequency of spontaneous mutations that confer resistance in a microbial population, we conducted a frequency of resistance (FoR) assay following established protocols[10],[31]–[33]. […] Prior to plating, bacteria were grown overnight in MHB medium at 37 °C and 250 RPM, then centrifuged and washed in MHB. All experiments were performed in triplicate, and plates were incubated at 37 °C for 48 hours. Total colony-forming units (CFUs) were determined by plating appropriate dilutions onto antibiotic-free MHB agar. Resistance frequencies were calculated by dividing the number of resistant colonies by the initial viable cell count. From the plates with the highest antibiotic concentration, ten colonies were selected for MIC determination and whole-genome sequencing.
A robotic liquid handling system was used to automatically prepare a 11 to 16-step serial dilution in 384-well microtiter plates (Greiner). A final concentration of 5 × 10^5 bacterial cells per mL were inoculated into each well containing 60 µL MHB medium. Bacterial cultures were incubated at 37 °C with continuous shaking (Infors shaker, 900 rpm with 3 mm throw) for 18 hours (2 replicates from each). Cell growth was monitored by measuring the optical density (OD600 values, using Biotek Synergy microplate reader). MIC was defined as the antibiotic concentration of complete growth inhibition (i.e., OD600 < 0.05). Relative MIC was calculated as follows:1 relativeMIC=MICevolved/MICancestor […]
Supplementary Figure 3. Resistance levels following the frequency of resistance assay across bacterial strains. The level of resistance was measured as the fold change in relative MIC between evolved and ancestral strains. Data are grouped by bacterial strain (A. baumannii (AB), E. coli (EC), K. pneumoniae (KP), and P. aeruginosa (PA)) and categorized as either multidrug-resistant (MDR) or sensitive (SEN). Each data point represents a laboratory evolved line, and boxplots show the median, first and third quartiles, with whiskers indicating the 5th and 95th percentiles. […]
analysis was performed using two-sided Dunn’s post-hoc test with Benjamini-Hochberg correction for multiple comparisons (**/ * indicates p < 0.01/ 0.05). For detailed information on antibiotic and bacterial species, see Supplementary Table 1. For mode of action groups, refer to Table 1. Source data are provided as a Source Data file.

[2] = test system: E. coli BW25113: pUCacrAB; assay: AcrAB-TolC efflux overexpression screen, relative MIC; type: cell-based, Escherichia coli; conditions: pUCacrAB vs empty pUC118 control
Description: as §1, §2, §3

[3] = Klebsiella pneumoniae ATCC 10031 (KP-SEN), evolved line 1 versus ancestor
[4] = Klebsiella pneumoniae ATCC 10031 (KP-SEN), evolved line 2 versus ancestor
[5] = Klebsiella pneumoniae ATCC 10031 (KP-SEN), evolved line 3 versus ancestor
[6] = read-out: MIC of evolved line, Klebsiella pneumoniae ATCC 10031 (KP-SEN), evolved line 1
[7] = read-out: MIC of evolved line, Klebsiella pneumoniae ATCC 10031 (KP-SEN), evolved line 2
[8] = read-out: MIC of evolved line, Klebsiella pneumoniae ATCC 10031 (KP-SEN), evolved line 3

CN(C)[C@@H]1C(O)=C(C(N)=O)C(=O)[C@@]2(O)C(O)=C3C(=O)c4c(O)c(NC(=O)CN5CCCC5)cc(F)c4C[C@H]3C[C@@H]12 [Eravacycline]
Relative MIC (log2) (E. coli BW25113-ΔacrB; replicate 1): -2.34 | Relative MIC (log2) (E. coli BW25113-ΔacrB; replicate 2): -2.34 | Relative MIC (log2) (E. coli BW25113-ΔacrB; replicate 3): -2.34 | Relative MIC [1, 3]: 16 | Relative MIC [1, 4]: 16 | Relative MIC [1, 5]: 16 | Relative MIC ([1]; Klebsiella pneumoniae ATCC 700603 (KP-MDR), evolved line 1 versus ancestor): 8 | Relative MIC ([1]; Klebsiella pneumoniae ATCC 700603 (KP-MDR), evolved line 2 versus ancestor): 8 | Relative MIC ([1]; Klebsiella pneumoniae ATCC 700603 (KP-MDR), evolved line 3 versus ancestor): 8 | MIC [1, 6]: 0.5 µg/mL | MIC [1, 7]: 0.5 µg/mL | MIC [1, 8]: 0.5 µg/mL | MIC ([1]; read-out: MIC of evolved line, Klebsiella pneumoniae ATCC 700603 (KP-MDR), evolved line 1): 32 µg/mL | MIC ([1]; read-out: MIC of evolved line, Klebsiella pneumoniae ATCC 700603 (KP-MDR), evolved line 2): 32 µg/mL | MIC ([1]; read-out: MIC of evolved line, Klebsiella pneumoniae ATCC 700603 (KP-MDR), evolved line 3): 32 µg/mL | Relative MIC (log2) ([2]; replicate 1): 0 | Relative MIC (log2) ([2]; replicate 2): 0 | Relative MIC (log2) ([2]; replicate 3): 0

CNC(C)C1CCC(N)C(OC2C(N)CC(N)C(OC3OCC(C)(O)C(NC)C3O)C2O)O1 (stereo not drawn) [Gentamicin]
Relative MIC (log2) (E. coli BW25113-ΔacrB; replicate 1): 0 | Relative MIC (log2) (E. coli BW25113-ΔacrB; replicate 2): 0 | Relative MIC (log2) (E. coli BW25113-ΔacrB; replicate 3): 0 | Relative MIC [1, 3]: 2 | Relative MIC [1, 4]: 2 | Relative MIC [1, 5]: 32 | MIC [1, 6]: 0.5 µg/mL | MIC [1, 7]: 0.5 µg/mL | MIC [1, 8]: 8 µg/mL | Relative MIC (log2) ([2]; replicate 1): 0 | Relative MIC (log2) ([2]; replicate 2): 0 | Relative MIC (log2) ([2]; replicate 3): 0

O=c1ccc2ncc(=O)n3c2n1C[C@H]3CN1CCC(NCc2cc3c(cn2)OCCC3)CC1 [Gepotidacin]
Relative MIC (log2) (E. coli BW25113-ΔacrB; replicate 1): -4 | Relative MIC (log2) (E. coli BW25113-ΔacrB; replicate 2): -4 | Relative MIC (log2) (E. coli BW25113-ΔacrB; replicate 3): -4 | Relative MIC [1, 3]: 1 | Relative MIC [1, 4]: 1 | Relative MIC [1, 5]: 1 | MIC [1, 6]: 0.0625 µg/mL | MIC [1, 7]: 0.0625 µg/mL | MIC [1, 8]: 0.0625 µg/mL | Relative MIC (log2) ([2]; replicate 1): 2 | Relative MIC (log2) ([2]; replicate 2): 2 | Relative MIC (log2) ([2]; replicate 3): 2

CN(C)c1cc(CNCC(C)(C)C)c(O)c2c1C[C@H]1C[C@H]3[C@H](N(C)C)C(O)=C(C(N)=O)C(=O)[C@@]3(O)C(O)=C1C2=O [Omadacycline]
Relative MIC (log2) (E. coli BW25113-ΔacrB; replicate 1): -2.34 | Relative MIC (log2) (E. coli BW25113-ΔacrB; replicate 2): -2.34 | Relative MIC (log2) (E. coli BW25113-ΔacrB; replicate 3): -2.34 | Relative MIC [1, 3]: 32 | Relative MIC [1, 4]: 16 | Relative MIC [1, 5]: 16 | MIC [1, 6]: 32 µg/mL | MIC [1, 7]: 16 µg/mL | MIC [1, 8]: 16 µg/mL | Relative MIC (log2) ([2]; replicate 1): 0.585 | Relative MIC (log2) ([2]; replicate 2): 0.585 | Relative MIC (log2) ([2]; replicate 3): 0.585

CC(C)c1ccc(Cn2ccc3c4c(N)nc(NC5CC5)nc4ccc32)cc1 [SCH79797]
Relative MIC (log2) (E. coli BW25113-ΔacrB; replicate 1): -1 | Relative MIC (log2) (E. coli BW25113-ΔacrB; replicate 2): -1 | Relative MIC (log2) (E. coli BW25113-ΔacrB; replicate 3): -1 | Relative MIC ([1]; FoR assay, Klebsiella pneumoniae ATCC 10031 (KP-SEN), evolved line 1): 1 | Relative MIC ([1]; FoR assay, Klebsiella pneumoniae ATCC 10031 (KP-SEN), evolved line 2): 1 | Relative MIC ([1]; FoR assay, Klebsiella pneumoniae ATCC 10031 (KP-SEN), evolved line 3): 1 | MIC of evolved line ([1]; Klebsiella pneumoniae ATCC 10031 (KP-SEN), evolved line 1): 4 µg/mL | MIC of evolved line ([1]; Klebsiella pneumoniae ATCC 10031 (KP-SEN), evolved line 2): 4 µg/mL | MIC of evolved line ([1]; Klebsiella pneumoniae ATCC 10031 (KP-SEN), evolved line 3): 4 µg/mL | Relative MIC [1, 3]: 1 | Relative MIC [1, 4]: 1 | Relative MIC [1, 5]: 1 | Relative MIC (log2) ([2]; replicate 1): 1 | Relative MIC (log2) ([2]; replicate 2): 1 | Relative MIC (log2) ([2]; replicate 3): 1
